Test results from US20080096807A1, “Cyclic vasoactive intestinal peptide receptor-2 agonists” (priority 2006, published 2008).
Like-named read-outs stand apart in the source and are kept apart here. Bridge positions count the residues as written; N and C are the ends. Square brackets hold non-standard residues; d marks the D form. Peptide text beside a SMILES is read from it. ξ: configuration not given here. Thr(3ξ) = CC(O)[C@H](N)C(=O)O; αMeV = CC(C)[C@](C)(N)C(=O)O; Nle = CCCC[C@H](N)C(=O)O

Experiments:
VPAC2 receptor = molecular target: T1, VPAC2 receptor (Homo sapiens, UniProt P41587); assay: Sup-T1 cAMP agonist assay; assay type: cell-based
T1 construct: The human T-lymphoid cell line Sup-Ti, which expresses the VPAC2 receptor; host or cells: Sup-T1 (Sup-Ti [sic]) human T-lymphoid cell line
T1 sequence (P41587 24-438): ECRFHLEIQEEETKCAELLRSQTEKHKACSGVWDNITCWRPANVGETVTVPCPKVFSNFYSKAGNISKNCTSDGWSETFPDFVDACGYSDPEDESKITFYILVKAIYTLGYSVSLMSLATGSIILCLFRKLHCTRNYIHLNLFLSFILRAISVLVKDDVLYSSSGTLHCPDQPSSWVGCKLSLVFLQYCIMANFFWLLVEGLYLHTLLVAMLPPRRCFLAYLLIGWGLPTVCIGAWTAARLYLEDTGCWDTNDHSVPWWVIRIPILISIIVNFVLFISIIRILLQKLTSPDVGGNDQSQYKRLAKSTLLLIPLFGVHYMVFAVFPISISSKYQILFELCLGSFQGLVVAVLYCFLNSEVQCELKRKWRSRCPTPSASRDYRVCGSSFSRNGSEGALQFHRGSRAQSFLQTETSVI
Protocol: The human T-lymphoid cell line Sup-Ti, which expresses the VPAC2 receptor, was obtained from the American Type Culture Collection (ATCC, CRL-1942) and maintained in growth medium at densities between 0.2 and 2×10^6 cells/ml in a 37° C. CO2 incubator. The growth medium was RPMI 1640 (Invitrogen) supplemented with 25 mM HEPES buffer and 10% fetal bovine serum (Gemini Bioproducts).
To evaluate VPAC2 agonist compound activity, cells in log-phase growth were washed once with growth medium at room temperature and plated into 96-well plates at a density of 4×10^4 cells per well in 150 uL of growth medium. Fifty uL of the compounds to be tested, prepared at appropriate concentrations in growth medium, were then added to designated wells. After 5 min at room temperature, the cells were lysed by adding 25 uL of lysis reagent 1A (cAMP Biotrak EIA system, Amersham Biosciences, RPN225) to each well. The 96-well plates were kept at room temperature for 10 min with shaking and then stored at 4° C. until analysis for cAMP (within 2 hr).
Cyclic AMP levels were determined in 100 uL of each lysate using the cAMP Biotrak Enzymeimmunoassay (EIA) kit according to the manufacture's instructions (Amersham Biosciences, RPN225). The activity of each VPAC2 agonist compound (EC50 value) was estimated by fitting the 7-concentration dose response data to a sigmoidal dose-response equation provided by the GraphPad Prism program (GraphPad Software, Inc.).

[1] = molecular target: T2, human neutrophil elastase (Homo sapiens, UniProt P08246); assay: Peptide stability to neutrophil elastase (RP HPLC ESI MS); details: halftime with human neutrophil elastase 1 to 2 μg/mL in PBS, ambient temperature, normalized to halftime of the reference standard
T2 sequence (P08246 30-247 limits assumed): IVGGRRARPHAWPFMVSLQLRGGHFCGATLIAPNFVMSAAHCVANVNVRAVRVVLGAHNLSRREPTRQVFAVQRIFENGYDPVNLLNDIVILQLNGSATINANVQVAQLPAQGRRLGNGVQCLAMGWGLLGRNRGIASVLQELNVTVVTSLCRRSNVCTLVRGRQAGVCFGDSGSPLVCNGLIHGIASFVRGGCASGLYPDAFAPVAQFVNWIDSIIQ
Protocol: The proteolytic stabilities of peptide analogs were established with reversed phase high pressure liquid chromatography (RP HPLC) electrospray ionization mass spectrometry (ESI MS). Peptide analogs were incubated with human neutrophile elastase and the quantity of undigested analogs was determined by ESI MS at appropriate time points. Multiple peptide analogs could be included in one experiment as long as they could be differentiated by HPLC retention time and/or by molecular weight. Ac-His Ac-[sequence]Nle-[sequence]NH2 was used in all experiments as a control and as a reference standard. The simultaneous use of multiple peptide analogs together with a reference standard allowed for compensation for variations in the proteolytic fidelity of the enzyme over the multiple experiments. Integrated ion currents obtained for the individual undigested peptide were used for quantitation. For calculation of halftime first-order kinetic behavior was assumed and all calculations were normalized to the halftime of the reference standard.
Peptide stock solutions were prepared in water to a concentration of 2.5 mg/mL. Unless in use, all stock solutions were kept at −20° C. […] Concentrations of the peptide analogs were adjusted accordingly. In order to do the proteolytic digestion, peptides were dissolved in phosphate buffered saline (PBS) to a concentration of 0.1 mg/mL. As many as six different peptide analogs were mixed into one 50 μL reaction volume. The reference standard was added to all experiments as a reference and internal standard. Elastase (Human Neutrophil, Calbiochem, Cat # 324681) was added from an elastase stock solution to a concentration of 1 to 2 μg/mL. Different amounts of the enzyme were chosen to compensate for the differences in the proteolytic stabilities of the peptide analogs. Previously, a stock solution of elastase was prepared in water at a concentration of 1 mg/mL. Small aliquots of the enzyme stock solution were kept at −20° C. to better maintain the enzyme activity by limiting the number of thaw and freeze cycles.
The digestion was done at ambient temperature in an autosampler tube within the autosampler of the HPLC system (Agilent 1100 Series). For a time course, 5 μL aliquots were injected in 70 minute intervals onto the reversed phase HPLC column (Phenomenex, Luna C18, 3μ, 100 ↑, 150×2.00 mm). For the starting time point an aliquot was injected just prior to the addition of the proteolytic enzyme. A total of eight time points could be recorded from one experiment, including the starting point. Peptides were separated on the reversed phase column with a 50 minute gradient of 5% to 30% organic phase. The aqueous phase was 0.05% (v/v) of trifluoroacetic acid in water and the organic one was 0.045% (v/v) of trifluoroacetic acid in acetonitrile. Absorbances were recorded at 214 and 280 nm respectively. All of the column effluent was introduced into the turbo V source of the electrospray ionization mass spectrometer (ABI 4000 QTrap LC/MS/MS System). Mass spectra were acquired in Q3MS mode in a mass range to include all triply charged ions of the non degraded peptide analogs. Care was taken to assure that peptide analogs could clearly be differentiated either by the chromatographic retention time or by the difference in molecular weight. Relative quantities of the respective undigested peptide analog were calculated from the integrated total ion current. A window of 2.5 Da was chosen and the manufacturer's software was used to integrate the individual ion currents. The overall halftime of an individual peptide analog was calculated by assuming first-order kinetic behavior and was normalized with respect to the halftime of the reference standard.

[2] = human T-lymphoid cell line Sup-T1 expressing VPAC2 receptor, cAMP EIA, 5 min at room temperature, read-out: Sup-T1 cAMP EC50

Row | SMILES | EC50 (VPAC2 receptor; [2]) [nM] | Relative elastase stability [1] | EC50 (VPAC2 receptor) [nM]
1 | CCCC[C@H](NC(=O)[C@H](CCC(N)=O)NC(=O)[C@H](CCCCN)NC(=O)[C@H](CCCNC(=N)N)NC(=O)[C@H](CC(C)C)NC(=O)[C@H](CCCCN)NC(=O)[C@@H](NC(=O)[C@H](Cc1ccc(O)cc1)NC(=O)[C@H](CC(N)=O)NC(=O)[C@H](CCC(=O)O)NC(=O)[C@@H](NC(=O)[C@H](Cc1ccccc1)NC(=O)[C@H](CC(=O)O)NC(=O)[C@H](C)NC(=O)[C@H](CC(=O)O)NC(=O)[C@H](CO)NC(=O)[C@H](Cc1c[nH]cn1)NC(C)=O)C(C)O)C(C)O)C(=O)N[C@@H](C)C(=O)N[C@@H](C)C(=O)N[C@@H](CCCCN)C(=O)N[C@H]1CCCCNC(=O)C[C@@H](C(=O)N[C@@H](CC(C)C)C(=O)N[C@@H](CCCCN)C(=O)N[C@@H](CCCCN)C(=O)NCC(=O)NCC(=O)N[C@H](C(N)=O)C(C)O)NC(=O)[C@H](CC(N)=O)NC(=O)[C@H](CC(C)C)NC(=O)[C@H](Cc2ccc(O)cc2)NC1=O (stereo partly shown) [Example 3] (Ac-HSDADF[Thr(3ξ)]ENY[Thr(3ξ)]KLRKQ[Nle]AAKKYLNDLKKGG[Thr(3ξ)]-NH2; lactam 21-25) | 98 | 4.5 | –
2 | CCCC[C@H](NC(=O)[C@H](CCC(N)=O)NC(=O)[C@H](CCCCN)NC(=O)[C@H](CCCNC(=N)N)NC(=O)[C@H](CC(C)C)NC(=O)[C@H](CCCCN)NC(=O)[C@@H](NC(=O)[C@H](Cc1ccc(O)cc1)NC(=O)[C@H](CC(N)=O)NC(=O)[C@H](CCC(=O)O)NC(=O)[C@@H](NC(=O)[C@H](Cc1ccccc1)NC(=O)[C@@](C)(NC(=O)[C@H](C)NC(=O)[C@H](CC(=O)O)NC(=O)[C@H](C)NC(=O)[C@H](Cc1c[nH]cn1)NC(C)=O)C(C)C)C(C)O)C(C)O)C(=O)N[C@@H](C)C(=O)N[C@@H](C)C(=O)N[C@@H](CCCCN)C(=O)N[C@H]1CCCCNC(=O)C[C@@H](C(=O)N[C@@H](CC(C)C)C(=O)N[C@@H](CCCCN)C(=O)N[C@@H](CCCCN)C(=O)NCC(=O)NCC(=O)N[C@H](C(N)=O)C(C)O)NC(=O)[C@H](CC(N)=O)NC(=O)[C@H](CC(C)C)NC(=O)[C@H](Cc2ccc(O)cc2)NC1=O (stereo partly drawn) [Example 21, Ac-His-Ala-Asp-Ala-MeVal-Phe-Thr-Glu-Asn-Tyr-Thr-Lys-Leu-Arg-Lys-Gln-Nle-Ala-Ala-Lys-Lys-Tyr-Leu-Asn-Asp-Leu-Lys-Lys-Gly-Gly-Thr-NH2] | – | 5.7 | –
3 | CCCC[C@H](NC(=O)[C@H](CCCNC(=N)N)NC(=O)[C@H](CCCCN)NC(=O)[C@H](CCCNC(=N)N)NC(=O)[C@H](CC(C)C)NC(=O)[C@H](CCCCN)NC(=O)[C@@H](NC(=O)[C@H](Cc1ccc(O)cc1)NC(=O)[C@H](CC(N)=O)NC(=O)[C@H](CCC(=O)O)NC(=O)[C@@H](NC(=O)[C@H](Cc1ccccc1)NC(=O)[C@H](CO)NC(=O)[C@H](C)NC(=O)[C@H](CC(=O)O)NC(=O)[C@H](CO)NC(=O)[C@H](Cc1c[nH]cn1)NC(C)=O)[C@@H](C)O)[C@@H](C)O)C(=O)N[C@@H](C)C(=O)N[C@@H](C)C(=O)N[C@@H](CCCCN)C(=O)N[C@H]1CCCCNC(=O)C[C@@H](C(=O)N[C@@H](CC(C)C)C(=O)N[C@@H](CC(C)C)C(=O)N[C@@H](CC(N)=O)C(=O)NCC(=O)NCC(=O)N[C@H](C(N)=O)[C@@H](C)O)NC(=O)[C@H](CC(N)=O)NC(=O)[C@H](CC(C)C)NC(=O)[C@H](Cc2ccc(O)cc2)NC1=O [Example 14] (Ac-HSDASFTENYTKLRKR[Nle]AAKKYLNDLLNGGT-NH2; lactam 21-25) | – | 4.5 | 94.1
4 | CCCC[C@H](NC(=O)[C@H](CCC(N)=O)NC(=O)[C@H](CCCCN)NC(=O)[C@H](CCCNC(=N)N)NC(=O)[C@H](CC(C)C)NC(=O)[C@H](CCCCN)NC(=O)[C@@H](NC(=O)[C@H](Cc1ccc(O)cc1)NC(=O)[C@H](CC(N)=O)NC(=O)[C@H](CCC(=O)O)NC(=O)[C@@H](NC(=O)[C@H](Cc1ccccc1)NC(=O)[C@H](CCC(N)=O)NC(=O)[C@H](C)NC(=O)[C@H](CC(=O)O)NC(=O)[C@H](CO)NC(=O)[C@H](Cc1c[nH]cn1)NC(C)=O)C(C)O)C(C)O)C(=O)N[C@@H](C)C(=O)N[C@@H](C)C(=O)N[C@@H](CCCCN)C(=O)N[C@H]1CCCCNC(=O)C[C@@H](C(=O)N[C@@H](CC(C)C)C(=O)N[C@@H](CCCCN)C(=O)N[C@@H](CCCCN)C(=O)NCC(=O)NCC(=O)N[C@H](C(N)=O)C(C)O)NC(=O)[C@H](CC(N)=O)NC(=O)[C@H](CC(C)C)NC(=O)[C@H](Cc2ccc(O)cc2)NC1=O (stereo partly shown) [Example 4] (Ac-HSDAQF[Thr(3ξ)]ENY[Thr(3ξ)]KLRKQ[Nle]AAKKYLNDLKKGG[Thr(3ξ)]-NH2; lactam 21-25) | 85 | 3.9 | –
5 | CCCC[C@H](NC(=O)[C@H](CCC(N)=O)NC(=O)[C@H](CCCCN)NC(=O)[C@H](CCCNC(=N)N)NC(=O)[C@H](CC(C)C)NC(=O)[C@H](CCCCN)NC(=O)[C@@H](NC(=O)[C@H](Cc1ccc(O)cc1)NC(=O)[C@H](CC(N)=O)NC(=O)[C@H](CCC(=O)O)NC(=O)[C@@H](NC(=O)[C@H](Cc1ccccc1)NC(=O)[C@@](C)(NC(=O)[C@H](C)NC(=O)[C@H](CC(=O)O)NC(=O)[C@H](CO)NC(=O)[C@H](Cc1c[nH]cn1)NC(C)=O)C(C)C)C(C)O)C(C)O)C(=O)N[C@@H](C)C(=O)N[C@@H](C)C(=O)N[C@@H](CCCCN)C(=O)N[C@H]1CCCCNC(=O)C[C@@H](C(=O)N[C@@H](CC(C)C)C(=O)N[C@@H](CC(C)C)C(=O)N[C@@H](CCCCN)C(=O)NCC(=O)NCC(=O)N[C@H](C(N)=O)C(C)O)NC(=O)[C@H](CC(N)=O)NC(=O)[C@H](CC(C)C)NC(=O)[C@H](Cc2ccc(O)cc2)NC1=O (stereo partly drawn) [Example 20, Ac-His-Ser-Asp-Ala-MeVal-Phe-Thr-Glu-Asn-Tyr-thr-Lys-Leu-Arg-Lys-Gln-Nle-Ala-Ala-Lys-Lys-Tyr-Leu-Asn-Asp-Leu-Leu-Lys-Gly-Gly-Thr-NH2] (Ac-HSDA[αMeV]F[Thr(3ξ)]ENY[Thr(3ξ)]KLRKQ[Nle]AAKKYLNDLLKGG[Thr(3ξ)]-NH2; lactam 21-25) | – | 3.4 | –
6 | CCCC[C@H](NC(=O)[C@H](CCCNC(=N)N)NC(=O)[C@H](CCCCN)NC(=O)[C@H](CCCNC(=N)N)NC(=O)[C@H](CC(C)C)NC(=O)[C@H](CCCCN)NC(=O)[C@@H](NC(=O)[C@H](Cc1ccc(O)cc1)NC(=O)[C@H](CC(N)=O)NC(=O)[C@H](CCC(=O)O)NC(=O)[C@@H](NC(=O)[C@H](Cc1ccccc1)NC(=O)[C@@](C)(NC(=O)[C@H](C)NC(=O)[C@H](CC(=O)O)NC(=O)[C@H](CO)NC(=O)[C@H](Cc1c[nH]cn1)NC(C)=O)C(C)C)C(C)O)C(C)O)C(=O)N[C@@H](C)C(=O)N[C@@H](C)C(=O)N[C@@H](CCCCN)C(=O)N[C@H]1CCCCNC(=O)C[C@@H](C(=O)N[C@@H](CC(C)C)C(=O)N[C@@H](CCCCN)C(=O)N[C@@H](CCCCN)C(=O)NCC(=O)NCC(=O)N[C@H](C(N)=O)C(C)O)NC(=O)[C@H](CC(N)=O)NC(=O)[C@H](CC(C)C)NC(=O)[C@H](Cc2ccc(O)cc2)NC1=O (stereo partly drawn) [Example 22, Ac-His-Ser-Asp-Ala-MeVal-Phe-Thr-Glu-Asn-Tyr-Thr-Lys-Leu-Arg-Lys-Arg-Nle-Ala-Ala-Lys-Lys-Tyr-Leu-Asn-Asp-Leu-Lys-Lys-Gly-Gly-Thr-NH2] | – | 1.8 | –
7 | CCCC[C@H](NC(=O)[C@H](CCC(N)=O)NC(=O)[C@H](CCCCN)NC(=O)[C@H](CCCNC(=N)N)NC(=O)[C@H](CC(C)C)NC(=O)[C@H](CCCCN)NC(=O)[C@@H](NC(=O)[C@H](Cc1ccc(O)cc1)NC(=O)[C@H](CC(N)=O)NC(=O)[C@H](CCC(=O)O)NC(=O)[C@@H](NC(=O)[C@H](Cc1ccccc1)NC(=O)[C@@](C)(NC(=O)[C@H](C)NC(=O)[C@H](CC(=O)O)NC(=O)[C@H](C)NC(=O)[C@H](Cc1c[nH]cn1)NC(C)=O)C(C)C)C(C)O)C(C)O)C(=O)N[C@@H](C)C(=O)N[C@@H](C)C(=O)N[C@@H](CCCCN)C(=O)N[C@H]1CCCCNC(=O)C[C@@H](C(=O)N[C@@H](CC(C)C)C(=O)N[C@@H](CC(C)C)C(=O)N[C@@H](CCCCN)C(=O)NCC(=O)NCC(=O)N[C@H](C(N)=O)C(C)O)NC(=O)[C@H](CC(N)=O)NC(=O)[C@H](CC(C)C)NC(=O)[C@H](Cc2ccc(O)cc2)NC1=O (stereo partly drawn) [Example 23, Ac-His-Ala-Asp-Ala-MeVal-Phe-Thr-Glu-Asn-Tyr-Thr-Lys-Leu-Arg-Lys-Gln-Nle-Ala-Ala-Lys-Lys-Tyr-Leu-Asn-Asp-Leu-Leu-Lys-Gly-Gly-Thr-NH2] | – | 3.6 | –
